± gives the uncertainty stated by the source.
Experiment: xn = mol fraction of the nth substance listed

CC(C)(C)Cl + C1CCOC1
101 kPa
Conditions	viscosity [mPa·s]
298.15 K, x2 = 0.0634	0.4743 ± 0.0055
298.15 K, x2 = 0.1288	0.4733 ± 0.0055
298.15 K, x2 = 0.2423	0.4718 ± 0.0054
298.15 K, x2 = 0.3198	0.4705 ± 0.0054
298.15 K, x2 = 0.4555	0.4684 ± 0.0053
298.15 K, x2 = 0.5341	0.4673 ± 0.0053
298.15 K, x2 = 0.6598	0.4656 ± 0.0052
298.15 K, x2 = 0.7441	0.4647 ± 0.0052
298.15 K, x2 = 0.8407	0.4639 ± 0.0052
298.15 K, x2 = 0.8916	0.4636 ± 0.0052
298.15 K, x2 = 0.961	0.4633 ± 0.0051
313.15 K, x2 = 0.0557	0.3913 ± 0.0052
313.15 K, x2 = 0.0959	0.3917 ± 0.0051
313.15 K, x2 = 0.1963	0.3928 ± 0.0051
313.15 K, x2 = 0.296	0.3935 ± 0.0051
313.15 K, x2 = 0.3892	0.394 ± 0.0051
313.15 K, x2 = 0.521	0.3945 ± 0.005
313.15 K, x2 = 0.5951	0.3946 ± 0.005
313.15 K, x2 = 0.6368	0.3947 ± 0.005
313.15 K, x2 = 0.8089	0.3951 ± 0.0049
313.15 K, x2 = 0.9009	0.3959 ± 0.0049
313.15 K, x2 = 0.9526	0.3968 ± 0.0049

O=C1c2ccccc2C(=O)C1(O)O + C[N+](C)(C)CCO.[Cl-]
Conditions	viscosity [mPa·s]
323.15 K, 100 kPa, x2 = 0.571	30500

C=CC#N + CCCCOC(C)=O
viscosity [mPa·s]
Conditions	298.15 K	303.15 K	308.15 K
101.3 kPa, x1 = 0.0988	–	0.6248 ± 0.0043	–
101.3 kPa, x1 = 0.2033	–	0.5998 ± 0.0042	–
101.3 kPa, x1 = 0.3022	–	0.5737 ± 0.0041	–
101.3 kPa, x1 = 0.401	–	0.5437 ± 0.004	–
101.3 kPa, x1 = 0.4962	–	0.5133 ± 0.0039	–
101.3 kPa, x1 = 0.5941	–	0.4775 ± 0.0037	–
101.3 kPa, x1 = 0.6991	–	0.4364 ± 0.0035	–
101.3 kPa, x1 = 0.7966	–	0.3951 ± 0.0034	–
101.3 kPa, x1 = 0.8992	–	0.3527 ± 0.0032	–
101.33 kPa, x1 = 0.099	0.651 ± 0.017	0.607 ± 0.016	0.571 ± 0.016
101.33 kPa, x1 = 0.1971	0.626 ± 0.017	0.582 ± 0.016	0.547 ± 0.015
101.33 kPa, x1 = 0.2999	0.596 ± 0.016	0.553 ± 0.015	0.522 ± 0.014
101.33 kPa, x1 = 0.404	0.561 ± 0.015	0.524 ± 0.015	0.494 ± 0.014
101.33 kPa, x1 = 0.5006	0.526 ± 0.015	0.49 ± 0.014	0.464 ± 0.013
101.33 kPa, x1 = 0.5992	0.488 ± 0.014	0.458 ± 0.013	0.433 ± 0.013
101.33 kPa, x1 = 0.7004	0.449 ± 0.013	0.421 ± 0.012	0.398 ± 0.012
101.33 kPa, x1 = 0.8014	0.412 ± 0.012	0.384 ± 0.012	0.365 ± 0.011
101.33 kPa, x1 = 0.9031	0.374 ± 0.011	0.349 ± 0.011	0.33 ± 0.01

[2H]O[2H] + C1COCCO1
viscosity [mPa·s], 101 kPa
Conditions	303.1 K	313.1 K	323.1 K
x1 = 0.1561	1.112 ± 0.018	0.944 ± 0.016	0.817 ± 0.014
x1 = 0.1831	1.154 ± 0.018	0.972 ± 0.016	0.831 ± 0.014
x1 = 0.3467	1.317 ± 0.02	1.092 ± 0.017	0.918 ± 0.015
x1 = 0.522	1.585 ± 0.024	1.289 ± 0.02	1.06 ± 0.017
x1 = 0.5977	1.728 ± 0.025	1.378 ± 0.021	1.128 ± 0.018
x1 = 0.6534	1.836 ± 0.027	1.447 ± 0.022	1.172 ± 0.018
x1 = 0.7431	1.968 ± 0.029	1.529 ± 0.023	1.233 ± 0.019
x1 = 0.8126	1.959 ± 0.029	1.52 ± 0.023	1.213 ± 0.019
x1 = 0.8683	1.754 ± 0.026	1.367 ± 0.021	1.098 ± 0.017
x1 = 0.9108	1.528 ± 0.023	1.199 ± 0.019	0.97 ± 0.016
x1 = 0.9466	1.321 ± 0.021	1.047 ± 0.017	0.853 ± 0.015
x1 = 0.9747	1.131 ± 0.018	0.905 ± 0.015	0.742 ± 0.013

CCC(C)(C)O + CO
298.15 K, 101.33 kPa
Conditions	viscosity [mPa·s]
x2 = 0.1504	3.673 ± 0.03
x2 = 0.2963	3.295 ± 0.027
x2 = 0.3807	2.941 ± 0.024
x2 = 0.4164	2.789 ± 0.023
x2 = 0.4914	2.41 ± 0.021
x2 = 0.6011	1.88 ± 0.018
x2 = 0.7145	1.404 ± 0.015
x2 = 0.7989	1.074 ± 0.013
x2 = 0.8988	0.788 ± 0.012

CCCCOC(=O)c1ccccc1C(=O)OCCCC + CCCCCCCCCCO
303.15 K, 101.33 kPa
Conditions	viscosity [mPa·s]
x1 = 0.1004	8.572 ± 0.044
x1 = 0.1995	8.061 ± 0.042
x1 = 0.3035	7.851 ± 0.041
x1 = 0.4004	7.91 ± 0.041
x1 = 0.4902	8.075 ± 0.042
x1 = 0.5977	8.479 ± 0.044
x1 = 0.6985	9.095 ± 0.047
x1 = 0.7997	9.985 ± 0.05
x1 = 0.8948	11.18 ± 0.056

FC(F)(F)c1ccccc1 + CC(Cl)(Cl)Cl
298.15 K, 101.33 kPa
Conditions	viscosity [mPa·s]
x2 = 0.103	0.5617 ± 0.0058
x2 = 0.201	0.572 ± 0.0058
x2 = 0.301	0.5865 ± 0.006
x2 = 0.402	0.6017 ± 0.0061
x2 = 0.502	0.6199 ± 0.0063
x2 = 0.602	0.6413 ± 0.0064
x2 = 0.701	0.6677 ± 0.0067
x2 = 0.8	0.7 ± 0.007
x2 = 0.85	0.7179 ± 0.0071

Source: the CheMixHub viscosity set
